The NIST ThermoML archive (doi:10.1021/je049925a)
Numbers after ± are expanded uncertainties.

Conditions: Liquid; for speed of sound: Sing-around technique in a fixed-path interferometer; for vapor or sublimation pressure: Closed cell (Static) method

CC(F)F [1,1-difluoroethane]
speed of sound (243.15 K, 138 kPa): 920.2 ± 1.9 m/s | speed of sound (243.15 K, 442 kPa): 922.3 ± 1.9 m/s | speed of sound (243.15 K, 595 kPa): 923.2 ± 1.9 m/s | speed of sound (243.15 K, 1302 kPa): 927.8 ± 1.9 m/s | speed of sound (243.15 K, 1815 kPa): 931 ± 1.9 m/s | speed of sound (243.15 K, 2160 kPa): 933.1 ± 1.9 m/s | speed of sound (243.15 K, 2762 kPa): 936.9 ± 1.9 m/s | speed of sound (243.15 K, 3217 kPa): 939.9 ± 1.9 m/s | speed of sound (243.15 K, 3854 kPa): 943.7 ± 1.9 m/s | speed of sound (243.15 K, 4428 kPa): 947.1 ± 2 m/s | speed of sound (243.15 K, 5359 kPa): 952.7 ± 2 m/s | speed of sound (243.15 K, 6355 kPa): 958.6 ± 2 m/s | speed of sound (243.15 K, 7657 kPa): 966.2 ± 2 m/s | speed of sound (243.15 K, 8846 kPa): 973.1 ± 2 m/s | speed of sound (243.15 K, 10231 kPa): 981 ± 2 m/s | speed of sound (243.15 K, 11681 kPa): 989 ± 2 m/s | speed of sound (243.15 K, 13279 kPa): 997.6 ± 2.1 m/s | speed of sound (243.15 K, 14943 kPa): 1005.5 ± 2.1 m/s | speed of sound (243.15 K, 16723 kPa): 1015.9 ± 2.1 m/s | speed of sound (243.15 K, 17442 kPa): 1019.5 ± 2.1 m/s | speed of sound (243.15 K, 18731 kPa): 1026.3 ± 2.1 m/s | speed of sound (243.15 K, 20194 kPa): 1033.7 ± 2.1 m/s | speed of sound (243.15 K, 22819 kPa): 1046.4 ± 2.2 m/s | speed of sound (243.15 K, 25117 kPa): 1058.6 ± 2.2 m/s | speed of sound (243.15 K, 27154 kPa): 1068.9 ± 2.2 m/s | speed of sound (243.15 K, 30242 kPa): 1084.3 ± 2.2 m/s | vapor or sublimation pressure (243.15 K): 73 ± 5 kPa | speed of sound (263.15 K, 407 kPa): 822.3 ± 1.7 m/s | speed of sound (263.15 K, 581 kPa): 823.3 ± 1.7 m/s | speed of sound (263.15 K, 759 kPa): 824.6 ± 1.7 m/s | speed of sound (263.15 K, 928 kPa): 825.5 ± 1.7 m/s | speed of sound (263.15 K, 1550 kPa): 831.3 ± 1.7 m/s | speed of sound (263.15 K, 2228 kPa): 835.9 ± 1.7 m/s | speed of sound (263.15 K, 2461 kPa): 837.6 ± 1.7 m/s | speed of sound (263.15 K, 3130 kPa): 842.9 ± 1.7 m/s | speed of sound (263.15 K, 3429 kPa): 844.7 ± 1.7 m/s | speed of sound (263.15 K, 3914 kPa): 848.6 ± 1.8 m/s | speed of sound (263.15 K, 5038 kPa): 856.2 ± 1.8 m/s | speed of sound (263.15 K, 5789 kPa): 861.4 ± 1.8 m/s | speed of sound (263.15 K, 6568 kPa): 866.7 ± 1.8 m/s | speed of sound (263.15 K, 7201 kPa): 871 ± 1.8 m/s | speed of sound (263.15 K, 7967 kPa): 876.3 ± 1.8 m/s | speed of sound (263.15 K, 8899 kPa): 881.9 ± 1.8 m/s | speed of sound (263.15 K, 9893 kPa): 888.5 ± 1.8 m/s | speed of sound (263.15 K, 11531 kPa): 898.7 ± 1.9 m/s | speed of sound (263.15 K, 13616 kPa): 912 ± 1.9 m/s | speed of sound (263.15 K, 15466 kPa): 922.7 ± 1.9 m/s | speed of sound (263.15 K, 17421 kPa): 934.4 ± 1.9 m/s | speed of sound (263.15 K, 18552 kPa): 941 ± 1.9 m/s | speed of sound (263.15 K, 19791 kPa): 947.4 ± 2 m/s | speed of sound (263.15 K, 21881 kPa): 959.5 ± 2 m/s | speed of sound (263.15 K, 25895 kPa): 980.9 ± 2 m/s | speed of sound (263.15 K, 27572 kPa): 989.5 ± 2 m/s | speed of sound (263.15 K, 29409 kPa): 998.8 ± 2.1 m/s | vapor or sublimation pressure (263.15 K): 179 ± 5 kPa | speed of sound (283.15 K, 547 kPa): 722.7 ± 1.5 m/s | speed of sound (283.15 K, 750 kPa): 724.6 ± 1.5 m/s | speed of sound (283.15 K, 1038 kPa): 727.4 ± 1.5 m/s | speed of sound (283.15 K, 1402 kPa): 731.2 ± 1.5 m/s | speed of sound (283.15 K, 1697 kPa): 733.8 ± 1.5 m/s | speed of sound (283.15 K, 2322 kPa): 739.5 ± 1.5 m/s | speed of sound (283.15 K, 2793 kPa): 743.7 ± 1.5 m/s | speed of sound (283.15 K, 3256 kPa): 747.8 ± 1.6 m/s | speed of sound (283.15 K, 3975 kPa): 754 ± 1.6 m/s | speed of sound (283.15 K, 4329 kPa): 756.9 ± 1.6 m/s | speed of sound (283.15 K, 5020 kPa): 762.5 ± 1.6 m/s | speed of sound (283.15 K, 6373 kPa): 773.5 ± 1.6 m/s | speed of sound (283.15 K, 7420 kPa): 781.9 ± 1.6 m/s | speed of sound (283.15 K, 8061 kPa): 787 ± 1.6 m/s | speed of sound (283.15 K, 9151 kPa): 795.4 ± 1.6 m/s | speed of sound (283.15 K, 10246 kPa): 803.6 ± 1.7 m/s | speed of sound (283.15 K, 11356 kPa): 811.6 ± 1.7 m/s | speed of sound (283.15 K, 13100 kPa): 824 ± 1.7 m/s | speed of sound (283.15 K, 14824 kPa): 835.9 ± 1.7 m/s | speed of sound (283.15 K, 16147 kPa): 844.8 ± 1.7 m/s | speed of sound (283.15 K, 18020 kPa): 857 ± 1.8 m/s | speed of sound (283.15 K, 19869 kPa): 868.3 ± 1.8 m/s | speed of sound (283.15 K, 22681 kPa): 885.6 ± 1.8 m/s | speed of sound (283.15 K, 24751 kPa): 897.6 ± 1.9 m/s | speed of sound (283.15 K, 27174 kPa): 911.6 ± 1.9 m/s | speed of sound (283.15 K, 29569 kPa): 925.1 ± 1.9 m/s | vapor or sublimation pressure (283.15 K): 372 ± 5 kPa | speed of sound (298.15 K, 660 kPa): 648 ± 1.4 m/s | speed of sound (298.15 K, 1153 kPa): 653.4 ± 1.4 m/s | speed of sound (298.15 K, 1656 kPa): 658.8 ± 1.4 m/s | speed of sound (298.15 K, 2142 kPa): 663.6 ± 1.4 m/s | speed of sound (298.15 K, 3104 kPa): 674.1 ± 1.4 m/s | speed of sound (298.15 K, 3609 kPa): 679.2 ± 1.4 m/s | speed of sound (298.15 K, 4115 kPa): 684.3 ± 1.4 m/s | speed of sound (298.15 K, 5023 kPa): 692.9 ± 1.4 m/s | speed of sound (298.15 K, 5998 kPa): 702.2 ± 1.5 m/s | speed of sound (298.15 K, 6939 kPa): 710.9 ± 1.5 m/s | speed of sound (298.15 K, 8037 kPa): 720.6 ± 1.5 m/s | speed of sound (298.15 K, 9271 kPa): 731.2 ± 1.5 m/s | speed of sound (298.15 K, 10321 kPa): 740.1 ± 1.5 m/s | speed of sound (298.15 K, 11735 kPa): 751.5 ± 1.6 m/s | speed of sound (298.15 K, 13300 kPa): 763.9 ± 1.6 m/s | speed of sound (298.15 K, 14789 kPa): 775.3 ± 1.6 m/s | speed of sound (298.15 K, 16388 kPa): 787.1 ± 1.6 m/s | speed of sound (298.15 K, 18041 kPa): 799 ± 1.7 m/s | speed of sound (298.15 K, 19521 kPa): 809.3 ± 1.7 m/s | speed of sound (298.15 K, 20530 kPa): 816.2 ± 1.7 m/s | speed of sound (298.15 K, 22781 kPa): 831.1 ± 1.7 m/s | speed of sound (298.15 K, 24289 kPa): 840.6 ± 1.7 m/s | speed of sound (298.15 K, 26870 kPa): 856.4 ± 1.8 m/s | speed of sound (298.15 K, 30717 kPa): 878.8 ± 1.8 m/s | vapor or sublimation pressure (298.15 K): 595 ± 5 kPa | speed of sound (313.15 K, 1222 kPa): 575.1 ± 1.2 m/s | speed of sound (313.15 K, 1721 kPa): 581.7 ± 1.2 m/s | speed of sound (313.15 K, 2288 kPa): 589.2 ± 1.2 m/s | speed of sound (313.15 K, 2776 kPa): 595.3 ± 1.2 m/s | speed of sound (313.15 K, 3587 kPa): 605.3 ± 1.3 m/s | speed of sound (313.15 K, 4184 kPa): 612.4 ± 1.3 m/s | speed of sound (313.15 K, 4942 kPa): 621 ± 1.3 m/s | speed of sound (313.15 K, 6282 kPa): 635.8 ± 1.3 m/s | speed of sound (313.15 K, 7106 kPa): 644.5 ± 1.3 m/s | speed of sound (313.15 K, 8134 kPa): 655.1 ± 1.4 m/s | speed of sound (313.15 K, 9180 kPa): 665.6 ± 1.4 m/s | speed of sound (313.15 K, 9927 kPa): 672.7 ± 1.4 m/s | speed of sound (313.15 K, 11390 kPa): 686.3 ± 1.4 m/s | speed of sound (313.15 K, 12765 kPa): 698.6 ± 1.5 m/s | speed of sound (313.15 K, 15195 kPa): 719.2 ± 1.5 m/s | speed of sound (313.15 K, 16072 kPa): 726.4 ± 1.5 m/s | speed of sound (313.15 K, 17264 kPa): 736 ± 1.5 m/s | speed of sound (313.15 K, 19072 kPa): 749.8 ± 1.6 m/s | speed of sound (313.15 K, 21055 kPa): 764.7 ± 1.6 m/s | speed of sound (313.15 K, 22659 kPa): 776.2 ± 1.6 m/s | speed of sound (313.15 K, 25122 kPa): 793.3 ± 1.6 m/s | speed of sound (313.15 K, 27530 kPa): 808.2 ± 1.7 m/s | speed of sound (313.15 K, 29895 kPa): 822.3 ± 1.7 m/s | vapor or sublimation pressure (313.15 K): 907 ± 5 kPa | speed of sound (333.15 K, 2129 kPa): 478.7 ± 1 m/s | speed of sound (333.15 K, 2606 kPa): 487.2 ± 1 m/s | speed of sound (333.15 K, 3860 kPa): 507.8 ± 1.1 m/s | speed of sound (333.15 K, 4725 kPa): 520.6 ± 1.1 m/s | speed of sound (333.15 K, 5932 kPa): 538 ± 1.1 m/s | speed of sound (333.15 K, 7142 kPa): 552.1 ± 1.2 m/s | speed of sound (333.15 K, 8008 kPa): 565.1 ± 1.2 m/s | speed of sound (333.15 K, 9016 kPa): 577.2 ± 1.2 m/s | speed of sound (333.15 K, 10079 kPa): 589.7 ± 1.2 m/s | speed of sound (333.15 K, 11228 kPa): 602.3 ± 1.3 m/s | speed of sound (333.15 K, 13279 kPa): 623.8 ± 1.3 m/s | speed of sound (333.15 K, 15330 kPa): 643.8 ± 1.3 m/s | speed of sound (333.15 K, 17092 kPa): 660.1 ± 1.4 m/s | speed of sound (333.15 K, 18393 kPa): 671.6 ± 1.4 m/s | speed of sound (333.15 K, 19875 kPa): 684.3 ± 1.4 m/s | speed of sound (333.15 K, 22222 kPa): 702.8 ± 1.5 m/s | speed of sound (333.15 K, 24752 kPa): 723.7 ± 1.5 m/s | speed of sound (333.15 K, 24836 kPa): 723.7 ± 1.5 m/s | speed of sound (333.15 K, 26902 kPa): 738.8 ± 1.5 m/s | speed of sound (333.15 K, 29698 kPa): 758.6 ± 1.6 m/s | vapor or sublimation pressure (333.15 K): 1499 ± 5 kPa
